Experimental data reported in patent US20120142701A1 (priority 2010, published 2012).

Columns and labels:
A/WSN/33 virus = test: multicycle growth assay, viral titres by plaques assay in MDCK cells; assay type: cell-based, influenza A H1N1 (A/WSN/33); conditions: MDCK cells infected with A/WSN/33 at 0.001 MOI
Procedure: FIG. 3 is a plot of the antiviral activity of an aggregation-inducing agent nucleozin in multicycle growth assays. Madin-Darby Canine Kidney (MDCK) cells were infected with A/WSN/33 virus at 0.001 MOI in the presence or absence of nucleozin (0.1 or 1 μM). Viral titres were determined by plaques assay at the time indicated.

nucleoproteins [1] = target: T1, nucleoproteins (Influenza A virus, UniProt P03466); test: cell-based aggregation assay (immunofluorescence microscopy)
Text: A cell-based method for identifying compounds that promote aggregation includes:
a.) treating cells with one or more test compounds for a period of time;
b.) adding a fixing solution to stop protein translation;
c.) treating the cells with a fluorescent antibody that binds specifically to a protein, glycoprotein, or protein-nucleic acid complex;
d.) determining the presence or absence of aggregation,
wherein if aggregation is present in (d), the test compound is identified as a compound that may promote aggregation.
1. 25 μl of culture medium is added into each well of a 384-well plate followed by the addition of a test compound from a chemical library in each well. Then 25 μl of cells (6×10^3 cells/well) with undesirable physiological conditions in DMEM with 10% fetal bovine serum are seeded into each assay well. Plates are incubated at 37° C. in a 5% CO2 humid atmosphere for 1 day.
2. The supernatant is removed from each well, and washed with 50 μl of phosphate-buffered saline (PBS).
3. The PBS is aspirated off and 50 μl of a cold (4° C.) fixing solution of 3.65% formaldehyde in PBS was added to each well. The plate was incubated for 1 h at 4° C.
4. The fixing solution was aspirated off and 50 μl of 0.1% Nonidet P-40 solution in PBS was added to each well. […]
8. The aggregation of proteins, glycoproteins, or protein-nucleic acid complexes is detected by immunofluorescence microscopy.

nucleoproteins [2] = target: T1, nucleoproteins; test: cell-free aggregation assay (aggregation plate reader); assay type: biochemical
Procedure: A cell-free method for identifying compounds that promote aggregation of proteins, glycoproteins, or protein-nucleic acid complexes includes:
a.) combining a mixture of bovine serum albumin and one or more proteins, glycoproteins, or protein-nucleic acid complexes;
b.) adding the mixture of (a) to a multi-well plate;
c.) transferring a test compound to one or more wells of the multi-well plate;
d.) incubating the plate of (c); and
e.) determining the presence of aggregation,
wherein if aggregation is present in (e), the test compound is identified as a compound that may promote aggregation.
1. A mixture of 1 μM proteins, glycoproteins, or protein-nucleic acid complexes in 40 μg/ml bovine serum albumin is prepared.
2. A portion (20 μl) of the reaction mixture is added to each well of a 384-well mircotitre plate using automated liquid dispenser.
3. Chemicals from a chemical library are assayed by transferring approximately 100 nl to each assay well by a 384 solid pin array.
4. The plates are incubated at 37° C. for 6 hours and the extent of chemical induced aggregation is recorded by an aggregation plate reader.

[3] = test system: A/Vietnam/1194/04 H5N1 virus; assay type: in vivo, BALB/c female mice
nucleoprotein [4] = assay type: biochemical
nucleoprotein [5] = target: nucleoprotein (Influenza A virus, UniProt P15682); test: cellular immunofluorescence microscopy in infected A549 cells; assay type: cell-based, influenza A/WSN/33 virus
Chain of nucleoprotein (Influenza A virus, UniProt P15682) (P15682 whole entry): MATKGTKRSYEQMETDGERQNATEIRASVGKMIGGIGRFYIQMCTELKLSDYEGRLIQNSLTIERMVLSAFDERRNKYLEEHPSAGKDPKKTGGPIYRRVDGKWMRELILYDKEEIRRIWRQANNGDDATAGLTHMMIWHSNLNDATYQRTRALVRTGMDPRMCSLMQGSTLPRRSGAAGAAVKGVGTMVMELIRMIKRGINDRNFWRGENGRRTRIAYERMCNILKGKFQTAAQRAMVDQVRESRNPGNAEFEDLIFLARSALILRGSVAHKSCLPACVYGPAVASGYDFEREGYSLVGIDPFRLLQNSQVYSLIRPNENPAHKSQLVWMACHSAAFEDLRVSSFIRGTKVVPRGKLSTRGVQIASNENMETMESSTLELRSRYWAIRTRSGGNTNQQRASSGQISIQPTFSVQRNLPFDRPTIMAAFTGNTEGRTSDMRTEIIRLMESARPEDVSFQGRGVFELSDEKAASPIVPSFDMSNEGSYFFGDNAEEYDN

T1 sequence (P03466 whole entry): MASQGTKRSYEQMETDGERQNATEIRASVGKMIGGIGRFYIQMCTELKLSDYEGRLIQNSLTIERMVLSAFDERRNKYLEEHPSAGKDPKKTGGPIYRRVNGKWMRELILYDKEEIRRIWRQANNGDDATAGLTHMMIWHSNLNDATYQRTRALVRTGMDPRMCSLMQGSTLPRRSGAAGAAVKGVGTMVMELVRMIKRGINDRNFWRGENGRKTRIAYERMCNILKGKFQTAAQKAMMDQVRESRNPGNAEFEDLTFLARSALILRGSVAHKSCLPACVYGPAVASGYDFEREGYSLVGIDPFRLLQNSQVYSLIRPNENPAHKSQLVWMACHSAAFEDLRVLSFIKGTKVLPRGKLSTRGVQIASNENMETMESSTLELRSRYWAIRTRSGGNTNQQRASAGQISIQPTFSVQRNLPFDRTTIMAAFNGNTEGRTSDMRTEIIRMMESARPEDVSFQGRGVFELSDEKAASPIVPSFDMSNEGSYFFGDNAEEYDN

## nucleozin
A/WSN/33 virus; nucleozin 0.1 μM
  viral growth (viral titres): suppressed viral growth
A/WSN/33 virus; nucleozin at 1 (unit cut off in the text)
  virus production (viral titres): completely inhibited virus production
Nucleoproteins [1]
  aggregation of nucleoproteins: aggregation of nucleoproteins was observed
Nucleoproteins [2]
  aggregation of nucleoproteins: aggregation of nucleoproteins was observed
[3]; mice after inoculation by influenza A virus H5N1 strain A/Vietnam/1194/04
  survival rate versus untreated controls: significantly higher survival rate
[3]; mice, two doses of nucleozin (250 nmole per dose) per day i.p. for 5 days, H5N1 A/Vietnam/1194/04 i.n.
  animals surviving for more than 21 days: 90%
Nucleoprotein [4]
  amount of nucleoprotein running into the native gradient gel: reduces the amount of nucleoprotein running into the native gradient gel in a dose-dependent manner
  nucleoprotein-RNA complex that runs into the 4-12% polyacrylamide gradient gel: dose-dependent reduction
Nucleoprotein [5]; influenza A/WSN/33, 3 hours post infection
  nucleoprotein localisation at 3 hours post infection: “halo” of dense nucleoprotein aggregates surrounding the perinuclear region in the cytoplasm
Nucleoprotein [5]; influenza A/WSN/33, 24 hours after infection
  nucleoprotein localisation at 24 hours after infection: nucleoprotein trapped in the cytoplasm was seen scattered randomly in host cells
Nucleoprotein [5]; influenza A/WSN/33 virus infection
  nucleoprotein accumulation in the nucleus: potent antagonist of nucleoprotein accumulation in the nucleus
